This passage reports pest or weed control results from patent US20230017045A1, “PYRIDINE AND PYRIMIDINE CARBOXYLATE HERBICIDES AND METHODS OF USE THEREOF” (Dow AgroSciences LLC, priority 2017, published 2023).

The test relates to test plant species. The test is described as follows: Post-emergent herbicidal activity test (greenhouse, foliar spray, visual growth reduction). It is filed as in vivo. The following applies: post-emergence, 336 h, 140 g ai/ha, 14 days after application. In short, it runs like this: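 Greenhouse plants at first–second true leaf stage sprayed overhead at 187 L/ha with compound in acetone/water/isopropanol/DMSO/crop oil/X-77 carrier; controls received solvent blank. Injury rated visually after 14 d on a 0–100% scale versus untreated and control plants, converted to growth reduction.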

Where [1] appears, read: ALOMY: blackgrass (Alopecurus myosuroides), read-out: Visual Growth Reduction (%) 14 Days After Application, ALOMY.
Setting [2] is: AMARE: redroot pigweed (Amaranthus retroflexus), read-out: Visual Growth Reduction (%) 14 Days After Application, AMARE.
[3] abbreviates: AVEFA: wild oat (Avena fatua), read-out: Visual Growth Reduction (%) 14 Days After Application, AVEFA.
Setting [4] is: CHEAL: lambsquarters (Chenopodium album), read-out: Visual Growth Reduction (%) 14 Days After Application, CHEAL.
Setting [5] is: CIRAR: canada thistle (Cirsium arvense), read-out: Visual Growth Reduction (%) 14 Days After Application, CIRAR.
[6] abbreviates: CYPES: yellow nutsedge (Cyperus esculentus), read-out: Visual Growth Reduction (%) 14 Days After Application, CYPES.
The mark [7] stands for this setting: DIGSA: crabgrass (Digitaria sanguinalis), read-out: Visual Growth Reduction (%) 14 Days After Application, DIGSA.
Where [8] appears, read: ECHCG: barnyardgrass (Echinochloa crus-galli), read-out: Visual Growth Reduction (%) 14 Days After Application, ECHCG.
Where [9] appears, read: IPOHE: ivy-leaf morning glory (Ipomoea hederacea), read-out: Visual Growth Reduction (%) 14 Days After Application, IPOHE.
The mark [10] stands for this setting: KCHSC: kochia (Bassia scoparia), read-out: Visual Growth Reduction (%) 14 Days After Application, KCHSC.
Setting [11] is: ORYSA: rice (Oryza sativa), read-out: Visual Growth Reduction (%) 14 Days After Application, ORYSA.
The mark [12] stands for this setting: SETFA: giant foxtail (Setaria faberi), read-out: Visual Growth Reduction (%) 14 Days After Application, SETFA.
Setting [13] is: SORVU: grain sorghum (Sorghum vulgare), read-out: Visual Growth Reduction (%) 14 Days After Application, SORVU.
The mark [14] stands for this setting: STEME: common chickweed (Stellaria media), read-out: Visual Growth Reduction (%) 14 Days After Application, STEME.
Setting [15] is: TRZAS: wheat, spring (Triticum aestivum), read-out: Visual Growth Reduction (%) 14 Days After Application, TRZAS.

Like-named read-outs stand apart in the source and are kept apart here.

In the case of `COC(=O)c1nc(-c2c(Cl)cc(C(F)(F)F)cc2SC)ccc1Cl` [F122, methyl 3-chloro-6-(2-chloro-6-(methylthio)-4-(trifluoromethyl)phenyl)picolinate], the pest or weed control at 140 g/ha was 0 to 29% under setting [1]; 95 to 100% under setting [2]; 0 to 29% under setting [3]; 60 to 74% under setting [4]; 60 to 74% under setting [5]; 0 to 29% under setting [6]. Besides, the pest or weed control at 140 g/ha lay in the range of 30 to 44% under setting [7]; 45 to 59% under setting [8]; 95 to 100% under setting [9]; 75 to 84% under setting [10]; 0 to 29% under setting [11]; 85 to 94% under setting [12]. The pest or weed control at 140 g/ha is, setting by setting: under setting [13], 75 to 84%; under setting [14], 0 to 29%; under setting [15], 0 to 29%.
Consider `COC(=O)c1nc(-c2ccc(Oc3ccc(F)cc3)cc2Cl)ccc1Cl` [F123, Methyl 3-chloro-6-(2-chloro-4-(4-fluorophe)phenyl) picolinate], for which the pest or weed control at 140 g/ha runs as follows: under setting [1], 0 to 29%; under setting [2], 0 to 29%; under setting [3], 0 to 29%; under setting [4], 0 to 29%; under setting [5], 0 to 29%; under setting [6], 0 to 29%. Besides, the pest or weed control at 140 g/ha is, setting by setting: under setting [7], 0 to 29%; under setting [8], 0 to 29%; under setting [9], 30 to 44%; under setting [10], 0 to 29%; under setting [11], 0 to 29%; under setting [12], 0 to 29%. Also, the pest or weed control at 140 g/ha is, setting by setting: under setting [13], 0 to 29%; under setting [14], 0 to 29%; under setting [15], 0 to 29%.
As for `COC(=O)c1nc(-c2cc3c(cc2Cl)OC(F)(F)O3)ccc1Cl` [F124, Methyl 3-chloro-6-(6-chloro-2,2-difluorobenzo[d] [1,3]dioxol-5-yl)picolinate], the pest or weed control at 140 g/ha reads like this: under setting [1], 45 to 59%; under setting [2], 75 to 84%; under setting [3], 30 to 44%; under setting [4], 85 to 94%; under setting [5], 75 to 84%; under setting [6], 0 to 29%. The pest or weed control at 140 g/ha is, setting by setting: under setting [7], 85 to 94%; under setting [8], 75 to 84%; under setting [9], 95 to 100%; under setting [10], 45 to 59%; under setting [11], 0 to 29%; under setting [12], 30 to 44%. The pest or weed control at 140 g/ha by setting is: under setting [13], 75 to 84%; under setting [14], 0 to 29%; under setting [15], 60 to 74%.
Turning to `COC(=O)c1nc(-c2ccc(C#N)c(Cl)c2)ccc1Cl` [F125, Methyl 3-chloro-6-(3-chloro-4-cyanophenyl) picolinate], the pest or weed control at 140 g/ha was 0 to 29% under setting [1]; 0 to 29% under setting [2]; 0 to 29% under setting [3]; 45 to 59% under setting [4]; 0 to 29% under setting [5]; 0 to 29% under setting [6]. The pest or weed control at 140 g/ha reads like this: under setting [7], 0 to 29%; under setting [8], 0 to 29%; under setting [9], 30 to 44%; under setting [10], 0 to 29%; under setting [11], 0 to 29%; under setting [12], 0 to 29%. Also, the pest or weed control at 140 g/ha by setting is: under setting [13], 0 to 29%; under setting [14], 0 to 29%; under setting [15], 0 to 29%.
In the case of `O=C(O)c1nc(-c2cc3c(cc2Cl)OC(F)(F)O3)ccc1Cl` [F126], the pest or weed control at 140 g/ha lay within 0 to 29% under setting [1]; 95 to 100% under setting [2]; 0 to 29% under setting [3]; 85 to 94% under setting [4]; 75 to 84% under setting [5]; 0 to 29% under setting [6]. Further, the pest or weed control at 140 g/ha is 85 to 94% under setting [7]; 60 to 74% under setting [8]; 95 to 100% under setting [9]; 60 to 74% under setting [10]; 0 to 29% under setting [11]; 60 to 74% under setting [12]. Besides, the pest or weed control at 140 g/ha was in the range of 75 to 84% under setting [13], 0 to 29% under setting [14] and 75 to 84% under setting [15].
Take `O=C(O)c1nc(-c2ccc(SC(F)(F)F)cc2Cl)c(Cl)cc1Cl` [F127, 3,5-Dichloro-6-(2-chloro-4-((trifluoromethyl)thio)phenyl) picolinic acid]: the pest or weed control at 140 g/ha is 0 to 29% under setting [1]; 95 to 100% under setting [2]; 0 to 29% under setting [3]; 75 to 84% under setting [4]; 85 to 94% under setting [5]; 0 to 29% under setting [6]. Besides, the pest or weed control at 140 g/ha is, setting by setting: under setting [7], 60 to 74%; under setting [8], 0 to 29%; under setting [9], 45 to 59%; under setting [10], 75 to 84%; under setting [11], 0 to 29%; under setting [12], 75 to 84%. The pest or weed control at 140 g/ha by setting is: under setting [13], 60 to 74%; under setting [14], 0 to 29%; under setting [15], 0 to 29%.
Turning to `COC(=O)c1nc(-c2cc(O)c(Cl)cc2F)ccc1Cl` [F128, Methyl 3-chloro-6-(4-chloro-2-fluoro-5-hydroxyphenyl) picolinate], the pest or weed control at 140 g/ha was 0 to 29% under setting [1]; 0 to 29% under setting [2]; 0 to 29% under setting [3]; 0 to 29% under setting [4]; 0 to 29% under setting [5]; 0 to 29% under setting [6]. Moreover, the pest or weed control at 140 g/ha under setting [7] lay in the range of 0 to 29%; the pest or weed control at 140 g/ha under setting [8] was in the range of 0 to 29%; the pest or weed control at 140 g/ha under setting [9] lay in the range of 0 to 29%; the pest or weed control at 140 g/ha under setting [10] was in the range of 0 to 29%; the pest or weed control at 140 g/ha under setting [11] lay within 0 to 29%; the pest or weed control at 140 g/ha under setting [12] was 0 to 29%. Moreover, the pest or weed control at 140 g/ha was in the range of 0 to 29% under setting [13], 0 to 29% under setting [14] and 0 to 29% under setting [15].
Turning to `COC(=O)c1nc(-c2cc(Cl)cnc2OC)ccc1Cl` [F129, Methyl 5,5′-dichloro-2′-methoxy-[2,3′-bipyridine-6-carboxylate], the pest or weed control at 140 g/ha runs as follows: under setting [1], 0 to 29%; under setting [2], 0 to 29%; under setting [3], 0 to 29%; under setting [4], 0 to 29%; under setting [5], 0 to 29%; under setting [6], 0 to 29%. The pest or weed control at 140 g/ha lay within 0 to 29% under setting [7]; 0 to 29% under setting [8]; 0 to 29% under setting [9]; 0 to 29% under setting [10]; 0 to 29% under setting [11]; 0 to 29% under setting [12]. In addition, the pest or weed control at 140 g/ha by setting is: under setting [13], 0 to 29%; under setting [14], 0 to 29%; under setting [15], 0 to 29%.
